pEC50: −log10 of the molar value.

For this test, the target named is Tryptophan 5-hydroxylase 1 (Homo sapiens) (UniProt P17752). Nature of the test: Inhibition of TPH1 in human BON cells assessed as inhibition of serotonin biosynthesis.
Sequence of Tryptophan 5-hydroxylase 1 (Homo sapiens) (P17752 whole entry, looked up): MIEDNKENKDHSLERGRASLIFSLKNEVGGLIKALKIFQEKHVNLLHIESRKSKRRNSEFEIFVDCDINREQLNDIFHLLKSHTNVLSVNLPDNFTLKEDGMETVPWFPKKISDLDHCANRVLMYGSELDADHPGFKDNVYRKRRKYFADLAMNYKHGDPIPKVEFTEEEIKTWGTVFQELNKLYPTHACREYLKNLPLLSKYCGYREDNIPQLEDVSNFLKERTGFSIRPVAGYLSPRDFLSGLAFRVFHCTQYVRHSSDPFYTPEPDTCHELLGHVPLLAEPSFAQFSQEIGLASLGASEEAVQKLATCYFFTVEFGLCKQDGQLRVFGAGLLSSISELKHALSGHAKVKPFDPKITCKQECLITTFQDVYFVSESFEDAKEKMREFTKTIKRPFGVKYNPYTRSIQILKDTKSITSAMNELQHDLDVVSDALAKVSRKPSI
A word on the pEC50: it is the EC50 on a negative log10 scale, so that one unit is a factor of ten. `Cc1cccc(-c2ccccc2C(Oc2cc(-c3ccc(C[C@H](N)C(=O)O)cc3)nc(N)n2)C(F)(F)F)c1` (some centres undefined): the pEC50 is 6.25. Turning to `Nc1nc(OC(c2ccccc2-c2ccco2)C(F)(F)F)cc(-c2ccc(C[C@H](N)C(=O)O)cc2)n1` (some centres undefined), the pEC50 is 6.10. In the case of `Nc1nc(OC(c2ccccc2-n2ccc(C(F)(F)F)n2)C(F)(F)F)cc(-c2ccc(C[C@H](N)C(=O)O)cc2)n1` (some centres undefined) it was 6.12; in that of `Nc1nc(OC(c2sccc2-c2ccco2)C(F)(F)F)cc(-c2ccc(C[C@H](N)C(=O)O)cc2)n1` (some centres undefined), 5.92.

These data come from ChEMBL document CHEMBL1155012, “Modulation of peripheral serotonin levels by novel tryptophan hydroxylase inhibitors for the potential treatment of functional gastrointestinal disorders” (J Med Chem, 2008).
